Assay results taken from patent publication US9676793B2, “Co-crystals of 5-amino-2-oxothiazolo[4,5-d]pyrimidin-3(2H)-yl-5-hydroxymethyl tetrahydrofuran-3-yl acetate and methods for preparing and using the same” (Hoffmann-La Roche Inc., priority 2014, dated 2017).
Read-outs that look alike come from different tables or passages of the source.

Columns and labels:
HBV [1] = experiment: microbe, parasite or virus in culture
Procedure: Direct inhibition of viral replication was evaluated by monitoring the levels of secreted HBV DNA and the levels of HBV surface antigen (HBsAg) in cultures containing HBV infected HepaRG cells.
After three days incubation, the combined medium was replaced with differentiation medium and the cells were maintained in the differentiation medium for an additional 2 to 4 weeks. The differentiation medium was renewed every 2 to 3 days throughout the incubation period. Differentiated HepaRG cells (HepaRGd) display hepatocyte-like cell islands surrounded by monolayer of biliary-like cells. Prior to HBV infection and compound treatment, HepaRGd cells were seeded into collagen I coated 96-well plates (Gibco, Cat# A11428-03) at 50,000 to 60,000 cells per well. Cells were allowed to recover their differentiated phenotype in 96-well plates for at least 1 week after plating prior to HBV infection.
HBV inoculum was collected from HepG2.2.15 cultured cells, a cell line that supports HBV (genotype D, strain ayw) replication and virion secretion as disclosed in Sells M A., et al., PNAS, 84(4): 1005-1009. HepG2.2.15 cells were maintained in DMEM+GlutaMAX-I (Invitrogen) containing 1× Pen/Strep (Invitrogen), 10% FBS, and 0.25 mg/ml G-418 (Invitrogen) using hyperflasks (Corning) pre-coated with collagen I (BD Biosciences). Upon reaching confluency, HepG2.2.15 culture media was replaced with DMEM+GlutaMAX-I containing 1× Pen-Strep, 2.5% FBS, and 1% DMSO for 3 days and then replaced with DMEM+GlutaMAX-I containing 1× Pen-Strep and 1% DMSO. The 1% DMSO containing media was collected every 3 to 4 days over a two week period and HBV infectious virions and subviral particles were pelleted by ultracentrifugation through a 20% sucrose cushion in a Ti 45 Beckman rotor at 45,000 rpm for 3 hours at 4° C. The pellets were resuspended in WEM at a concentration of 10^8-10^9 genome equivalents (GE) per ml, determined by real time PCR as described below using a genotype D HBV containing plasmid DNA as an internal standard. To evaluate the infectivity of the inoculum, HepaRGd cells in 96-well plates were infected in differentiation medium containing 50 to 200 GE/cell and 4% PEG 8000 (PolyEthylene Glycol 8000, Sigma, Cat# P5413-500G) for 16 hr at 37° C. At the end of the infection, HBV inoculum was removed and cells were washed 3 times with differentiation medium. Differentiation medium was replenished every 2 to 3 days and HBV replication was monitored by measuring secreted HBV DNA, hepatitis B surface (HBsAg) and/or e (HBeAg) antigens.
HBsAg was detected from 50 μL of HBV infected HepaRG supernatants using the HBsAg chemiluminescence immunoassay (CLIA) kit following instructions as recommended by the manufacturer (Autobio Diagnostics Co., Zhengzhou, China). HBV DNA was extracted from 50 μL of HBV infected HepaRGd supernatants using the MagNA Pure 96 DNA and Viral NA Small Volume Kit (Roche, Cat#05 467 497 001). […] All PCR reactions were performed using the ViiA7 Real Time PCR system (Life Technologies).
Both direct and indirect inhibitory activity of HBV replication was measured. […] Aliquots of these reagents were added to independent wells of a 96-well culture plate containing HBV infected HepaRGd cells on day 4 post infection. The final concentration of DMSO in each well was 2%. The HepaRGd cells used in the inhibition study were maintained in differentiation media containing 2% DMSO.

HBV [2] = experiment: Indirect inhibition of HBV replication by conditioned media from stimulated PBMCs; assay type: cell-based, HBV (genotype D, strain ayw)
Procedure: (§1) TLR-7 agonists stimulate the production cytokines and chemokines from human PBMC's. Conditioned medium was obtained by contacting cultured PBMC's with DMSO (control) or 100 μM R06871765 (drug) was contacted with HBV infected HepaRGd cells.
HBV infected HepaRGd cells were incubated with various dilutions of conditioned media collected from PBMCs isolated from healthy donors—donor 70615 (graphs A-D) and donor 77726 (graphs E, F). The PBMC's from each donor were stimulated with either DMSO (graphs A, C, E) or 100 μM R06871765 (graphs B, D, F). […] Three experiments were performed. In the first experiment (FIGS. 4A, 4B), conditioned media from PBMCs (donor 70615) was first diluted 10-fold using differentiation media, and then serially diluted in 3-fold increments prior to addition of each of the diluted conditioned medium to HBV infected HepaRGd cells. In the second experiment (FIGS. 4C, 4D), conditioned media from PBMCs (donor 70615) was first diluted 5-fold using differentiation media, and then serially diluted in 5-fold increments prior to addition to HBV infected HepaRGd cells. In the third experiment (FIGS. 4E, 4F), conditioned media from PBMCs (donor 77726) was first diluted 5-fold using differentiation media, and then serially diluted in 5-fold increments prior to addition to HBV infected HepaRGd cells. The HBV replication inhibitory activity for control and R06871765 treated cells was determined by monitoring the levels of HBV DNA and HBsAg secreted in culture medium.

human PBMCs = experiment: Cytokine profiling of conditioned media from stimulated PBMCs; assay type: cell-based; conditions: no release with DMSO
Procedure: as §1
The anti-viral effect of conditioned medium obtained cultured PBMC's treated with R06871765 most likely is due to the release of cytokines and chemokines from PBMC's.

[3] = conditioned media of PBMCs stimulated with 100 μM
[4] = conditioned media of PBMCs stimulated with 100 μM, Feb. 28, 2013 donor 77726
[5] = conditioned media of PBMCs stimulated with 100 μM, Jan. 3, 2013 donor 70615
[6] = conditioned media of PBMCs stimulated with 100 μM, Nov. 12, 2012 donor 70615
[7] = stimulated PBMC conditioned media

Nc1nc2c(sc(=O)n2[C@@H]2O[C@H](CO)C[C@H]2O)c(=O)[nH]1 [R06871765]
EC50 (HBV [1]; Hepatitis B virus, 168 h, read-out: EC50 (HBV DNA or HBsAg)): > 200 µM | CC50 (HBV [1]; Hepatitis B virus, read-out: EC/CC50 (μM), HBV DNA): > 200 µM | CC50 (HBV [1]; Hepatitis B virus, read-out: EC/CC50 (μM), HBsAg): > 200 µM | inhibition at 0.82 µM (HBV [1]; Hepatitis B virus, read-out: HBV DNA (% inhibition), 0.82 μM, EXP ID 10/15/2012 AL): -1.24% | inhibition at 0.82 µM (HBV [1]; Hepatitis B virus, read-out: HBV DNA (% inhibition), 0.82 μM, EXP ID 11/1/2012): 12.2% | inhibition at 2.47 µM (HBV [1]; Hepatitis B virus, read-out: HBV DNA (% inhibition), 2.47 μM, EXP ID 10/15/2012 AL): -16% | inhibition at 2.47 µM (HBV [1]; Hepatitis B virus, read-out: HBV DNA (% inhibition), 2.47 μM, EXP ID 11/1/2012): -0.77% | inhibition at 7.41 µM (HBV [1]; Hepatitis B virus, read-out: HBV DNA (% inhibition), 7.41 μM, EXP ID 10/15/2012 AL): -17.4% | inhibition at 7.41 µM (HBV [1]; Hepatitis B virus, read-out: HBV DNA (% inhibition), 7.41 μM, EXP ID 11/1/2012): -23.5% | inhibition at 22.22 µM (HBV [1]; Hepatitis B virus, read-out: HBV DNA (% inhibition), 22.22 μM, EXP ID 10/15/2012 AL): 4.96% | inhibition at 22.22 µM (HBV [1]; Hepatitis B virus, read-out: HBV DNA (% inhibition), 22.22 μM, EXP ID 11/1/2012): 5.69% | inhibition at 66.67 µM (HBV [1]; Hepatitis B virus, read-out: HBV DNA (% inhibition), 66.67 μM, EXP ID 10/15/2012 AL): -0.65% | inhibition at 66.67 µM (HBV [1]; Hepatitis B virus, read-out: HBV DNA (% inhibition), 66.67 μM, EXP ID 11/1/2012): 21.1% | inhibition at 200 µM (HBV [1]; Hepatitis B virus, read-out: HBV DNA (% inhibition), 200 μM, EXP ID 10/15/2012 AL): 12.2% | inhibition at 200 µM (HBV [1]; Hepatitis B virus, read-out: HBV DNA (% inhibition), 200 μM, EXP ID 11/1/2012): 3.11% | inhibition at 0.82 µM (HBV [1]; Hepatitis B virus, read-out: HBsAg (% inhibition), 0.82 μM, EXP ID 10/15/2012 AL): 10.5% | inhibition at 0.82 µM (HBV [1]; Hepatitis B virus, read-out: HBsAg (% inhibition), 0.82 μM, EXP ID 10/15/2012 VL): 14.7% | inhibition at 0.82 µM (HBV [1]; Hepatitis B virus, read-out: HBsAg (% inhibition), 0.82 μM, EXP ID 11/1/2012): 14.8% | inhibition at 2.47 µM (HBV [1]; Hepatitis B virus, read-out: HBsAg (% inhibition), 2.47 μM, EXP ID 10/15/2012 AL): -4.7% | inhibition at 2.47 µM (HBV [1]; Hepatitis B virus, read-out: HBsAg (% inhibition), 2.47 μM, EXP ID 10/15/2012 VL): 11.8% | inhibition at 2.47 µM (HBV [1]; Hepatitis B virus, read-out: HBsAg (% inhibition), 2.47 μM, EXP ID 11/1/2012): 14.7% | inhibition at 7.41 µM (HBV [1]; Hepatitis B virus, read-out: HBsAg (% inhibition), 7.41 μM, EXP ID 10/15/2012 AL): -11.7% | inhibition at 7.41 µM (HBV [1]; Hepatitis B virus, read-out: HBsAg (% inhibition), 7.41 μM, EXP ID 10/15/2012 VL): 3.92% | inhibition at 7.41 µM (HBV [1]; Hepatitis B virus, read-out: HBsAg (% inhibition), 7.41 μM, EXP ID 11/1/2012): 1.81% | inhibition at 22.22 µM (HBV [1]; Hepatitis B virus, read-out: HBsAg (% inhibition), 22.22 μM, EXP ID 10/15/2012 AL): 0.44% | inhibition at 22.22 µM (HBV [1]; Hepatitis B virus, read-out: HBsAg (% inhibition), 22.22 μM, EXP ID 10/15/2012 VL): 3.98% | inhibition at 22.22 µM (HBV [1]; Hepatitis B virus, read-out: HBsAg (% inhibition), 22.22 μM, EXP ID 11/1/2012): 0.66% | inhibition at 66.67 µM (HBV [1]; Hepatitis B virus, read-out: HBsAg (% inhibition), 66.67 μM, EXP ID 10/15/2012 AL): -2.13% | inhibition at 66.67 µM (HBV [1]; Hepatitis B virus, read-out: HBsAg (% inhibition), 66.67 μM, EXP ID 10/15/2012 VL): 14.5% | inhibition at 66.67 µM (HBV [1]; Hepatitis B virus, read-out: HBsAg (% inhibition), 66.67 μM, EXP ID 11/1/2012): 5.02% | inhibition at 200 µM (HBV [1]; Hepatitis B virus, read-out: HBsAg (% inhibition), 200 μM, EXP ID 10/15/2012 AL): 2.48% | inhibition at 200 µM (HBV [1]; Hepatitis B virus, read-out: HBsAg (% inhibition), 200 μM, EXP ID 10/15/2012 VL): 4.25% | inhibition at 200 µM (HBV [1]; Hepatitis B virus, read-out: HBsAg (% inhibition), 200 μM, EXP ID 11/1/2012): 16% | direct inhibition of HBV viral replication (HBV [1]; cultured HepaRG cells): did not exert any direct anti-HBV effect | CC50 (HBV [1]; read-out: EC/CC50 (μM), HBV DNA, EXP ID 11/1/2012): > 200 µM | CC50 (HBV [1]; read-out: EC/CC50 (μM), HBsAg, EXP ID 10/15/2012 VL): > 200 µM | CC50 (HBV [1]; read-out: EC/CC50 (μM), HBsAg, EXP ID 11/1/2012): > 200 µM | EC50 converted fold dilution, HBV DNA secretion (HBV [2]; [3]): 318 fold dilution | EC50 converted fold dilution, HBsAg secretion (HBV [2]; [3]): 16 fold dilution | EC50 [log dilution], HBV DNA secretion (HBV [2]; [4]): −2.1 log dilution | EC50 [log dilution], HBsAg secretion (HBV [2]; [4]): −1.0 log dilution | EC50 [log dilution], HBV DNA secretion (HBV [2]; [5]): −2.9 log dilution | EC50 [log dilution], HBsAg secretion (HBV [2]; [5]): −1.4 log dilution | EC50 [log dilution], HBV DNA secretion (HBV [2]; [6]): −2.5 log dilution | EC50 [log dilution], HBsAg secretion (HBV [2]; [6]): <−1.0 log dilution | EC50 [log dilution], HBsAg secretion, Ave ± SD (HBV [2]; conditioned media of PBMCs stimulated with 100 μM, average): −1.2 log dilution | EC50 [log dilution], HBV DNA secretion, Ave ± SD (HBV [2]; conditioned media of PBMCs stimulated with 100 μM, average of three experiments): −2.5 ± 0.4 log dilution | average EC50 against HBV DNA (HBV [2]; [7]): −2.5±0.4 log10 | average EC50 against HBV surface antigen (HBsAg) secretion (HBV [2]; [7]): −1.2 log10 | release of IFN-α, IL-6, TNF-α and IP-10 from PBMCs (human PBMCs): induced release
